In article PMC8967249, “Discovery of Novel HPK1 Inhibitors Through Structure-Based Virtual Screening” (Frontiers in Pharmacology, 2022) one finds IC50, inhibition and Ki data, which are given here for 8 compounds.

By IC50 is commonly meant the concentration at which inhibition is half-maximal. For orientation: inhibition means the relative decrease from the control value, in per cent. For orientation: Ki means the equilibrium dissociation constant of an inhibitor or competing ligand from its target.

In experiment [1] the target is T1, HPK1 kinase (Homo sapiens, UniProt Q92918). As to the kind of experiment: In vitro HPK1 kinase inhibition assay (Caliper mobility shift assay). The settings on record: for inhibition at 50 µM: read-out: Inhibition (%) 50 μM, 50 μM, duplicate, mean ± SD.
Experimental: The mixture was centrifuged at 1,000 rpm for 30 s and then mixed and incubated at room temperature for 10 min. […] The plate was incubated at room temperature for 2 h. Finally, 30 μL terminated buffer was added to terminate the kinase reaction. Conversion rate data were read with Caliper EZ ReaderⅡ. The IC50 values of concentration-dependent curves were fitted by GraphPad Prism 6.0.
For the next experiment, the target named is WT HPK1 kinase. Also on record: method as in Johnson et al. (2019). The following applies: WT HPK1 kinase in vitro; ref Johnson et al. (2019); read-out: inhibition constant (Ki); cited from earlier work.
A further experiment has as its system SLP76. Also on record: method as in Yu et al. (2021). The settings on record: SLP76 PBMC assay; ref Yu et al. (2021); cited from earlier work.
In experiment [2] the target is T1, HPK1 kinase. More on the design: purchased Invitrogen PV6357; method as in Yu et al. (2021). The following applies: ref Yu et al. (2021); cited from earlier work.
Another experiment concerns HPK1. Also on record: method as in Wu et al. (2019). The following applies: ref Wu et al. (2019); cited from earlier work.

Read-outs that look alike come from different tables or passages of the source.

T1 sequence (Q92918 whole entry): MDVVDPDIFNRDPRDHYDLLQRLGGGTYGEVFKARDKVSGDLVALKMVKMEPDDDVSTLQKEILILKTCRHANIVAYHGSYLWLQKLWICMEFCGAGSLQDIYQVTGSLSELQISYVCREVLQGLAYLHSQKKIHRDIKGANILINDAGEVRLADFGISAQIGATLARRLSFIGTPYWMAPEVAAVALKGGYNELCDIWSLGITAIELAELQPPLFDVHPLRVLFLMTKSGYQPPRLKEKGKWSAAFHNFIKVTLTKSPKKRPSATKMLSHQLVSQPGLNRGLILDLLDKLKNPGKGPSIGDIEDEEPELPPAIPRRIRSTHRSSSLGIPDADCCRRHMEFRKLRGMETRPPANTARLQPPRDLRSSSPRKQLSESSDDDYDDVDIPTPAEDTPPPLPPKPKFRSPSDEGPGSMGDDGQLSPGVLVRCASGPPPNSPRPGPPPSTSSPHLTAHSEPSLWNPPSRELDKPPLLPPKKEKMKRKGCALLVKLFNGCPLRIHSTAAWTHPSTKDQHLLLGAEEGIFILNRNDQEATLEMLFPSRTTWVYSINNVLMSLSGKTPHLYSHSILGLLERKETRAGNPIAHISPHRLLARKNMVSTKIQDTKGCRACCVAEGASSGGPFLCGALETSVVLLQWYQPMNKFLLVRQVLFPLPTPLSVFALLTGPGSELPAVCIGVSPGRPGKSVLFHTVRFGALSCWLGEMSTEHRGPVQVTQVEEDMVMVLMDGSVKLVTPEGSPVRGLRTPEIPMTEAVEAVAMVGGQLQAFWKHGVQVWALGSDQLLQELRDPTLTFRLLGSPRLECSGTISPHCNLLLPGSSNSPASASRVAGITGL

With `Cc1cccc(NC(=O)c2n[nH]c3ccccc23)c1` [8016-1815], at HPK1 kinase [1], the IC50 was 7.55 ± 0.56 µM and the inhibition at 50 µM is over 60%.
As for `O=C1Nc2ccc(Cl)cc2/C1=N/NC(=O)c1cc(Br)ccc1O` [2395-0114], at HPK1 kinase [1], the concentration for half-maximal inhibition (IC50) is 9.59 ± 0.46 µM.
As to `CCN(CC)CCNC(=O)c1c(C)[nH]c(/C=C2\C(=O)Nc3ccc(F)cc32)c1C` [Sunitinib], the Ki at WT HPK1 kinase is about 0.01 µM.
As to `COc1cccc(F)c1-c1cc2c(cn1)cnn2-c1cccc(N2CCN(C)CC2)n1` [XHS], the IC50 is 0.6 µM in the experiment on SLP76 and 0.0026 µM at HPK1 kinase [2].
Turning to `O=C1CCc2cc(NC(=O)c3n[nH]c4ccccc34)ccc2N1` [M074-2865], the concentration for half-maximal inhibition (IC50) at HPK1 kinase [1] turned out to be 2.93 ± 0.09 µM.
With `CCCC[C@@H](CC)CNC(=O)c1ccc(N/N=C2\C(=O)Nc3ccccc32)cc1` [V014-4726], on HPK1 kinase [1], the IC50 was found to be 14.3 ± 1.07 µM and the inhibition at 50 µM was over 60%.
Take `CC(C)n1ncc2cnc(Nc3cc(C4CCNC4)nc(N4CCC(F)(F)C4)n3)cc21` (centres unmarked) [GNE-1858]: in the experiment on HPK1, the half-maximal inhibitory concentration (IC50) was 0.0019 µM.
With `Cc1cc(C)c2c(c1)/C(=N/Nc1ccc(C(=O)N3CCC[C@@H]3C)cc1)C(=O)N2` [V030-2005], the IC50 at HPK1 kinase [1] stood at 9.49 ± 0.54 µM.
